Results from ChEMBL document CHEMBL5316313, “Discovery of Novel 3-Phenylpiperidine Derivatives Targeting the β-Catenin/B-Cell Lymphoma 9 Interaction as a Single Agent and in Combination with the Anti-PD-1 Antibody for the Treatment of Colorectal Cancer” (J Med Chem, 2023).

Assays:
HEK293 [1] = experiment: Induction of apoptosis in Wnt-independent human HEK293 cells assessed as necrotic cells at 10 uM incubated for 24 hrs by Annexin V-Alexa Fluor 647/PI staining based flow cytomtery (Rvb=1.82%); format: functional
HEK293 [2] = experiment: Induction of apoptosis in Wnt-independent human HEK293 cells assessed as early apoptotic cells at 10 uM incubated for 24 hrs by Annexin V-Alexa Fluor 647/PI staining based flow cytomtery (Rvb=17.4%); format: functional
HEK293 [3] = experiment: Induction of apoptosis in Wnt-independent human HEK293 cells assessed as viable cells at 10 uM incubated for 24 hrs by Annexin V-Alexa Fluor 647/PI staining based flow cytomtery (Rvb=70.5%); format: functional; conditions: read-out: Activity
HCT-116 = experiment: Induction of apoptosis in Wnt-dependent human HCT-116 cells assessed as necrotic cells at 20 uM incubated for 24 hrs by Annexin V-Alexa Fluor 647/PI staining based flow cytomtery (Rvb=1.47%); format: functional
CT26 [4] = experiment: Induction of apoptosis in Wnt-dependent mouse CT26 cells assessed as late apoptotic cells at 10 uM incubated for 24 hrs by Annexin V-Alexa Fluor 647/PI staining based flow cytomtery (Rvb=9.96%); format: functional
CT26 [5] = experiment: Antitumor activity against mouse CT26 cells xenografted in BALB/c mouse assessed as tumor growth inhibition at 30 mg/kg, ip QD and measured upto 9 days in presence of anti-PD-1 antibody cotreatment at 10 mg/kg,ip BIW; format: functional; conditions: CT26, 216 h, time <= 9 day, read-out: TGI
[6] = Toxicity in BALB/c mouse xenografted with mouse CT26 cells assessed as pathological changes in kidney at 30 mg/kg, ip QD by hematoxylin and eosin staining based microscopic analysis; format: organism-based; conditions: in vivo
[7] = Toxicity in BALB/c mouse xenografted with mouse CT26 cells assessed as pathological changes in spleen at 30 mg/kg, ip QD in presence of anti-PD-1 antibody cotreatment at 10 mg/kg,ip BIW by hematoxylin and eosin staining based microscopic analysis; format: organism-based; conditions: in vivo
[8] = Clearance in Sprague-Dawley rat at 21 mg/kg, ip and measured upto 24 hrs by LC-MS analysis; format: ADME, organism-based; conditions: in vivo
[9] = target: T1, beta-catenin-B-cell lymphoma 9 protein complex (Homo sapiens, UniProt P35222); experiment: Inhibition of beta-catenin/BCL9 protein-protein interaction in Wnt-dependent human HCT-116 cells assessed as reduction in Axin2 expression level by qRT-PCR assay; format: cell-based
T1 sequence (P35222 whole entry): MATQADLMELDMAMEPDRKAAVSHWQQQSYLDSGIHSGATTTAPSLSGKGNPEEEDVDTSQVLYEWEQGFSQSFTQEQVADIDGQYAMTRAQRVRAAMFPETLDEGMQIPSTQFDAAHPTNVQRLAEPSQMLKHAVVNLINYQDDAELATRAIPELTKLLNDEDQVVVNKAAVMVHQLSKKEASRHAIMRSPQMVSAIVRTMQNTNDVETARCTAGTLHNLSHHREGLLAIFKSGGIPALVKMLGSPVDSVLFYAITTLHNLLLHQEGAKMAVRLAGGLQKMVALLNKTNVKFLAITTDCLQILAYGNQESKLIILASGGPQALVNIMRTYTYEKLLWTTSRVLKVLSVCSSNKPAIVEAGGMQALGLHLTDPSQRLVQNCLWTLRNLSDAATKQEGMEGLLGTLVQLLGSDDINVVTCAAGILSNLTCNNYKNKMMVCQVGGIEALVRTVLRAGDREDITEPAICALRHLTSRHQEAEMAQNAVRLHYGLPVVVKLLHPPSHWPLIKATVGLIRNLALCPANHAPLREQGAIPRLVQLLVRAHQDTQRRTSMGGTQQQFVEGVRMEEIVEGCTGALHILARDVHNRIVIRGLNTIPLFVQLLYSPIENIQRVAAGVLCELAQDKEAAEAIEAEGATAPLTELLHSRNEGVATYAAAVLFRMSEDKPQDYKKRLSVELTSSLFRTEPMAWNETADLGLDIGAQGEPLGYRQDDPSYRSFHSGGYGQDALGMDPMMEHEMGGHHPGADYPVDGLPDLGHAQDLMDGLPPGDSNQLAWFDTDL
T1 sequence (O00512 whole entry): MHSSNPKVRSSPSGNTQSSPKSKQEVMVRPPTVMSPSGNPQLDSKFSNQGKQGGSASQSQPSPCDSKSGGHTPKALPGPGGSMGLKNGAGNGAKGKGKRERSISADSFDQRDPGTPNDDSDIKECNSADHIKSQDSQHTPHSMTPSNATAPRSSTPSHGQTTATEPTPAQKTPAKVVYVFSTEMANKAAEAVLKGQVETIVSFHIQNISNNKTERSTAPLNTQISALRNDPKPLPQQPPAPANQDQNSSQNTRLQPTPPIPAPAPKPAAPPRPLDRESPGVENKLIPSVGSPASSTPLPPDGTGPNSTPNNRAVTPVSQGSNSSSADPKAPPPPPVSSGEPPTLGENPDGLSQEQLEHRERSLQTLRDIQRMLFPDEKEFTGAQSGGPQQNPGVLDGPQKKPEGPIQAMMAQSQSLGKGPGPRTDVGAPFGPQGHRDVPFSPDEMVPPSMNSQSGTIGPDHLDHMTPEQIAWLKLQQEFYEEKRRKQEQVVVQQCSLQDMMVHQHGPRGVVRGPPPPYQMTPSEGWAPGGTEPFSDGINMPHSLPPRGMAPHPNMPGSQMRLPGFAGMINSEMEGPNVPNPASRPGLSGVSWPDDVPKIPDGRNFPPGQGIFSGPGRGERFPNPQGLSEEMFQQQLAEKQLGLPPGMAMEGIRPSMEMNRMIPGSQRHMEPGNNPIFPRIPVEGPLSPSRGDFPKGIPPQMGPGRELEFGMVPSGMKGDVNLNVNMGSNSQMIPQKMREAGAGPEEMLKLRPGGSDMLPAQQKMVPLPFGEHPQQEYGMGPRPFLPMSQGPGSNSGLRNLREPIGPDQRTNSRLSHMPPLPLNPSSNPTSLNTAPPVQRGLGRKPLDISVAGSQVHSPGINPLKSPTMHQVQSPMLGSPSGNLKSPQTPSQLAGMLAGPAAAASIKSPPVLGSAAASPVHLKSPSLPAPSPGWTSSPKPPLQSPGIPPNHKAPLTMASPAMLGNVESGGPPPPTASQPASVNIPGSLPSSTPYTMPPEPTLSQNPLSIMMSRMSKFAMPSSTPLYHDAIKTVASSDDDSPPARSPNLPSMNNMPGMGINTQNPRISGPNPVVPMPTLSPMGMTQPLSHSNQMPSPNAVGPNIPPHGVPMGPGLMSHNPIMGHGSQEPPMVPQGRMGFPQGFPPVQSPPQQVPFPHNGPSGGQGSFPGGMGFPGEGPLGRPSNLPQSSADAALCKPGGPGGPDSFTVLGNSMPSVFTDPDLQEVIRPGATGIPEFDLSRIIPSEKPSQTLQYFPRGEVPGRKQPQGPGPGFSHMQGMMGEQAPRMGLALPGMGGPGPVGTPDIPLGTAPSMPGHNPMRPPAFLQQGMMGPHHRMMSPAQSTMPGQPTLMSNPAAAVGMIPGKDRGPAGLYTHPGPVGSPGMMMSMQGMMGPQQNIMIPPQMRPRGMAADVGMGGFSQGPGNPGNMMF

| SMILES | Activity (HEK293 [1]) [%] | Activity (HEK293 [2]) [%] | viability at 10 µM (HEK293 [3]) [%] | Activity (HCT-116) [%] | Activity (CT26 [4]) [%] | inhibition in vivo at 30 mg/kg (CT26 [5]) [%] | Activity [6] | Activity [7] | CL/F [8] [mL/min/kg] | IC50 [9] [nM] |
| --- | --- | --- | --- | --- | --- | --- | --- | --- | --- | --- |
| CC(C)c1ccc(-c2cccc(S(=O)(=O)N3CCCC(c4cccc(OC(C)(C)C(=O)NS(=O)(=O)c5ccc(C(F)(F)F)cc5)c4)C3)c2)cc1 (stereo not given) | 2.28 | 12.1 | 70.8 | 3.22 | 30.2 | 81.1 | Non-Toxic | Non-Toxic | 20.1 |  |
| O=C1[C@H](Cc2ccc(O)cc2)N2C(=O)CCN(C(=O)NCc3ccccc3)[C@H]2CN1Cc1cccc2ccccc12 |  |  |  |  |  |  |  |  |  | 2690 |
